These results are taken from ChEMBL document CHEMBL5465560, “Selectivity Literature for EUbOPEN Chemogenomic Library” (2024).

A value given as a limit tells only on which side of the number the result lay.

The target of assay [1] is Cyclin-dependent kinase 9 (Homo sapiens, UniProt P50750). The experiment in a line: Selectivity interaction (LanthaScreen Eu Kinase Binding Assay) EUB0001632a CDK9. Conditions: at 10 µM. A general note: Time-resolved FRET reads energy transfer from a long-lived donor to a nearby acceptor.
Assay [2] deals with Epidermal growth factor receptor (Homo sapiens), P00533 [G719S]. The experiment in a line: (§1) Selectivity interaction (KinomeScan (DiscoverX)) EUB0001619a EGFR. Conditions: at 1 µM.
In assay [3] the test system is Epidermal growth factor receptor (Homo sapiens), P00533 [L858R,T790M]. The assay is described as §1. Conditions: at 1 µM.
Assay [4] concerns Epidermal growth factor receptor (Homo sapiens), P00533 [G719C]. The assay is described as §1. Conditions: at 1 µM.
For assay [5], the system named is Epidermal growth factor receptor (Homo sapiens), P00533 [UNDEFINED MUTATION]. The description is as §1. Conditions: at 1 µM.
In assay [6] the test system is Epidermal growth factor receptor (Homo sapiens), P00533 [L858R]. Described as §1. Conditions: at 1 µM.
For assay [7], the target named is Epidermal growth factor receptor (Homo sapiens, UniProt P00533). The description is as §1. As to conditions: at 1 µM.
Assay [8] deals with Epidermal growth factor receptor (Homo sapiens), P00533 [T790M]. The description is as §1. Conditions: at 1 µM.
For assay [9], the system named is Epidermal growth factor receptor (Homo sapiens), P00533 [L861Q]. Described as §1. As to conditions: at 1 µM.
Assay [10] has as its target T1, 5-hydroxytryptamine receptor 1A (Homo sapiens) (UniProt P08908).
T1 sequence (whole entry): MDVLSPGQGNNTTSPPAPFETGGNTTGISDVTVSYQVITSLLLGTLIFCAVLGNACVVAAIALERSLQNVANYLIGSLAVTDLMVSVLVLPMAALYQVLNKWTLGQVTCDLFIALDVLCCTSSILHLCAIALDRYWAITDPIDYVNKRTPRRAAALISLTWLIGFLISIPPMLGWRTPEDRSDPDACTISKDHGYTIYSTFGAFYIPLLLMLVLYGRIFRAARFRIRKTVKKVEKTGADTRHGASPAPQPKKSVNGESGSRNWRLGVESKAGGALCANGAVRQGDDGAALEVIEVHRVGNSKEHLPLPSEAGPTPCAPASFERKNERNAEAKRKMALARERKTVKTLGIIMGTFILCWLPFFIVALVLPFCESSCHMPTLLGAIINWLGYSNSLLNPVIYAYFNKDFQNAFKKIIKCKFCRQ
Briefly: Selectivity interaction (Eurofins CEREP Diversity Profile (receptors and ion channels)) EUB0000279b HTR1A. As to conditions: at 10 µM.

For assay [11], the system named is Hepatocyte growth factor receptor (Homo sapiens), P08581 [M1250T]. The experiment in a line: (§2) Selectivity interaction (KinomeScan (DiscoverX)) EUB0000695a MET. Conditions: at 100 nM.
Assay [12] deals with Hepatocyte growth factor receptor (Homo sapiens, UniProt P08581). The description is as §2. Conditions: at 100 nM.
The test system of assay [13] is Hepatocyte growth factor receptor (Homo sapiens), P08581 [Y1235D]. Described as §2. As to conditions: at 100 nM.
Assay [14] concerns the target Serine/threonine-protein kinase PAK 6 (Homo sapiens) (UniProt Q9NQU5). Briefly: Selectivity interaction (KinomeScan (DiscoverX)) EUB0000695a PAK6. Conditions: at 100 nM.
Assay [15] has as its target Calcium/calmodulin-dependent protein kinase type II subunit gamma (Homo sapiens) (UniProt Q13555). Briefly: Selectivity interaction (KinomeScan (DiscoverX)) EUB0000666a CAMK2G. Conditions: at 10 µM.
Assay [16] addresses Ribosomal protein S6 kinase alpha-5 (Homo sapiens) (UniProt O75582). The experiment in a line: Selectivity interaction (KinomeScan (DiscoverX)) EUB0000666a RPS6KA5. Conditions: at 10 µM.
For assay [17], the target named is T2, Serine/threonine-protein kinase STK11 (Homo sapiens) (UniProt Q15831).
T2 sequence (whole entry): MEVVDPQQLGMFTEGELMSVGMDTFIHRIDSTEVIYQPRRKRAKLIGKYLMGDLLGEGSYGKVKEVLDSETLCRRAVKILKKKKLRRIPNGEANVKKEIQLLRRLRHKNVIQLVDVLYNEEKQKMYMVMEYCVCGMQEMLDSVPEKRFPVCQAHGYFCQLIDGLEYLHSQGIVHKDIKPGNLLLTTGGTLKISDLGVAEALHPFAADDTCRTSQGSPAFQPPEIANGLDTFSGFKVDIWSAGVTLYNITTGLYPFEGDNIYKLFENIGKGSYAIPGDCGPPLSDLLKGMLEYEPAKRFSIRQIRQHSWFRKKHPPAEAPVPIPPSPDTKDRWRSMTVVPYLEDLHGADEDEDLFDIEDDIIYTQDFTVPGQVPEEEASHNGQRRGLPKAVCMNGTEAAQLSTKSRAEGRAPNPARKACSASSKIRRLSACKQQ
Briefly: Selectivity interaction (ActivX KiNativ screen (kinase selectivity in THP-1 cell lysates)) EUB0000639a STK11. In kind it is subcellular. Conditions: lysate.

In assay [18] the target is Serine/threonine-protein kinase pim-3 (Homo sapiens) (UniProt Q86V86). The experiment in a line: Selectivity interaction (Kinase panel (literature)) EUB0001199aCl PIM3. As to conditions: at 1 µM.
Assay [19] concerns the target Tyrosine-protein kinase JAK1 (Homo sapiens, UniProt P23458). The experiment in a line: Selectivity interaction (Kinase panel (Carna Biosciences)) EUB0001542aTs JAK1. Conditions: at 1 µM.
Assay [20] concerns the target T3, Tyrosine-protein kinase Tec (Homo sapiens) (UniProt P42680).
T3 sequence (whole entry): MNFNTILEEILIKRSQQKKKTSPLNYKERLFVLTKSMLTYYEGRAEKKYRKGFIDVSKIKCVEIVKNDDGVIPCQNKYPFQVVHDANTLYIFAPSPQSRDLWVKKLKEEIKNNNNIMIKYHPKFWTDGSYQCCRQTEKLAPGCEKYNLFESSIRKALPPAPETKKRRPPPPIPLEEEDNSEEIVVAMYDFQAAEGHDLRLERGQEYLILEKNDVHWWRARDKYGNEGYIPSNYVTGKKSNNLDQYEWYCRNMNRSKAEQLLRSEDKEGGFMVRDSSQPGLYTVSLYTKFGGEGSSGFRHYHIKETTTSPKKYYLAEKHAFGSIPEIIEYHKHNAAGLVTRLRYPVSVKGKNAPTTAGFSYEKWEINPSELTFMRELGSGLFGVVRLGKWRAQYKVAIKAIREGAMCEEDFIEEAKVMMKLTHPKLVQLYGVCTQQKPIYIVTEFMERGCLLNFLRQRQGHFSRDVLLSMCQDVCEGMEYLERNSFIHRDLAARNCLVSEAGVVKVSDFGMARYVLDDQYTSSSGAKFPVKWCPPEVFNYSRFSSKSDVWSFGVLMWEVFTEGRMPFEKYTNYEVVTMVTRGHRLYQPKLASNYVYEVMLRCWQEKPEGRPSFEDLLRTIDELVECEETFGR
The experiment in a line: Selectivity interaction (KinomeScan (DiscoverX)) EUB0001868a TEC. Conditions: at 1 µM.

For assay [21], the target named is Glycogen synthase kinase-3 beta (Homo sapiens, UniProt P49841). The experiment in a line: Selectivity interaction (Kinase panel (33PanQinase(R) Activity Assay)) EUB0000877a GSK3B.
The target in assay [22] is Interleukin-1 receptor-associated kinase 1 (Homo sapiens) (UniProt P51617). Briefly: Selectivity interaction (KinomeScan (DiscoverX)) EUB0000655a IRAK1. Conditions: at 10 µM.
The target in assay [23] is Calcium/calmodulin-dependent protein kinase type II subunit gamma (Homo sapiens) (UniProt Q13555). The experiment in a line: Selectivity interaction (KinomeScan (DiscoverX)) EUB0000655a CAMK2G. Conditions: at 10 µM.
Assay [24] deals with Muscarinic acetylcholine receptor M3 (Homo sapiens, UniProt P20309). The experiment in a line: Selectivity interaction (Panel of non-epigenetic targets (kinases, GPCRs, ion channels, and transporters, Eurofins) ) EUB0000271b CHRM3. As to conditions: at 1 µM.
Chain of Muscarinic acetylcholine receptor M3 (P20309 whole entry, looked up): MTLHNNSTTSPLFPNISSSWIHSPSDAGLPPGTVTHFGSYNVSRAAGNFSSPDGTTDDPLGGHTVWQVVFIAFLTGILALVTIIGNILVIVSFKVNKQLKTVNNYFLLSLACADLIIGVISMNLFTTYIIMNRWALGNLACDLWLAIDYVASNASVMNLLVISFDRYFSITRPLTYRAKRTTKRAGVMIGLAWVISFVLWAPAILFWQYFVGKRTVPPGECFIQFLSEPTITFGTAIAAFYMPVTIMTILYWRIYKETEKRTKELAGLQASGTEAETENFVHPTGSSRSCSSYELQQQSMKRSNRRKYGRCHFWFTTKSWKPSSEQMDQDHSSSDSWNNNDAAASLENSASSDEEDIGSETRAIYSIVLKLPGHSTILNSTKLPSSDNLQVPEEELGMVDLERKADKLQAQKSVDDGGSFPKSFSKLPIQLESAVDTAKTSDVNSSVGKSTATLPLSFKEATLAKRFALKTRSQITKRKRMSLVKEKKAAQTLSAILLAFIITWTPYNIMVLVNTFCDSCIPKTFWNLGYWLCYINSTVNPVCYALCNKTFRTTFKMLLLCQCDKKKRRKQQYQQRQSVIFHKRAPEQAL

Chain of Calcium/calmodulin-dependent protein kinase type II subunit gamma (Homo sapiens) (Q13555 whole entry): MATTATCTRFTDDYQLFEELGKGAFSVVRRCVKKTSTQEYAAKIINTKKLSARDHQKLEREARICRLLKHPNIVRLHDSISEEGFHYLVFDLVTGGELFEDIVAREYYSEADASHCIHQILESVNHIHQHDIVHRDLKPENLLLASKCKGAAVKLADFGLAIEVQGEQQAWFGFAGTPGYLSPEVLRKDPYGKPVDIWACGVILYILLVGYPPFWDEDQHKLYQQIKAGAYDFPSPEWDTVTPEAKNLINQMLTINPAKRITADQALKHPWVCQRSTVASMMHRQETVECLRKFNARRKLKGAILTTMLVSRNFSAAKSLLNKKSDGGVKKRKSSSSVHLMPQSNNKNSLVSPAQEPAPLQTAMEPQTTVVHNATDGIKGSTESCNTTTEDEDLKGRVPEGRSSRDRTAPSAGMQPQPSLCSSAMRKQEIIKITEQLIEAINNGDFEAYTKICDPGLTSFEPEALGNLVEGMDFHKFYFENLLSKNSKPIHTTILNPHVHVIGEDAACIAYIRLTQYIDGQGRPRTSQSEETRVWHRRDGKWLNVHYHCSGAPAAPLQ
Chain of Serine/threonine-protein kinase PAK 6 (Homo sapiens) (Q9NQU5 whole entry, looked up): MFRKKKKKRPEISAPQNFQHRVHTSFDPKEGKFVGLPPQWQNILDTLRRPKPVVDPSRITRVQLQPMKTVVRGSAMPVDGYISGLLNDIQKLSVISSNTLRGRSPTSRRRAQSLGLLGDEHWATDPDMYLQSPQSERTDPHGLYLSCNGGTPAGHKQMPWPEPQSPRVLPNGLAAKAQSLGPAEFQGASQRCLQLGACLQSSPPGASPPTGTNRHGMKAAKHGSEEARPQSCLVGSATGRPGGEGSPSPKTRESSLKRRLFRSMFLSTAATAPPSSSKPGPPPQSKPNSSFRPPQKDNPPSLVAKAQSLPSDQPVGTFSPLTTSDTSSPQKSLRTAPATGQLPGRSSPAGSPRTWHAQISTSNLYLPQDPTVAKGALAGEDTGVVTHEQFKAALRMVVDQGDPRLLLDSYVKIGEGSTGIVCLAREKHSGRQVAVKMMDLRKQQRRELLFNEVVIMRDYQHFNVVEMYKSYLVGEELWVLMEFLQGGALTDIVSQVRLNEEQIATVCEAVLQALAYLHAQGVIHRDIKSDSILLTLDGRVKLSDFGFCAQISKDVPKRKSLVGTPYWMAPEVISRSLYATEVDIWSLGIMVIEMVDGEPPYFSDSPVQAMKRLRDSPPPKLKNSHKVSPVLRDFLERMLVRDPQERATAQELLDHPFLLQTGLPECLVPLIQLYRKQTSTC
Chain of Cyclin-dependent kinase 9 (P50750 whole entry): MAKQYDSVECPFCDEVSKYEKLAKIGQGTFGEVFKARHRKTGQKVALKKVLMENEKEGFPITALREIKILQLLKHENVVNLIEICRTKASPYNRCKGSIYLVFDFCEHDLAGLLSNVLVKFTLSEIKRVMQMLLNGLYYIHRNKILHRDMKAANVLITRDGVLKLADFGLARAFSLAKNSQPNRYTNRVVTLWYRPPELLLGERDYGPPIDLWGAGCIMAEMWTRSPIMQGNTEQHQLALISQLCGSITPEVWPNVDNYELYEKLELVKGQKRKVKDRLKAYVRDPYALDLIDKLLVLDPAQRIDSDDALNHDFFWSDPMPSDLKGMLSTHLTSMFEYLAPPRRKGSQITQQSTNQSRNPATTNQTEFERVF
Chain of Ribosomal protein S6 kinase alpha-5 (Homo sapiens) (O75582 whole entry, looked up): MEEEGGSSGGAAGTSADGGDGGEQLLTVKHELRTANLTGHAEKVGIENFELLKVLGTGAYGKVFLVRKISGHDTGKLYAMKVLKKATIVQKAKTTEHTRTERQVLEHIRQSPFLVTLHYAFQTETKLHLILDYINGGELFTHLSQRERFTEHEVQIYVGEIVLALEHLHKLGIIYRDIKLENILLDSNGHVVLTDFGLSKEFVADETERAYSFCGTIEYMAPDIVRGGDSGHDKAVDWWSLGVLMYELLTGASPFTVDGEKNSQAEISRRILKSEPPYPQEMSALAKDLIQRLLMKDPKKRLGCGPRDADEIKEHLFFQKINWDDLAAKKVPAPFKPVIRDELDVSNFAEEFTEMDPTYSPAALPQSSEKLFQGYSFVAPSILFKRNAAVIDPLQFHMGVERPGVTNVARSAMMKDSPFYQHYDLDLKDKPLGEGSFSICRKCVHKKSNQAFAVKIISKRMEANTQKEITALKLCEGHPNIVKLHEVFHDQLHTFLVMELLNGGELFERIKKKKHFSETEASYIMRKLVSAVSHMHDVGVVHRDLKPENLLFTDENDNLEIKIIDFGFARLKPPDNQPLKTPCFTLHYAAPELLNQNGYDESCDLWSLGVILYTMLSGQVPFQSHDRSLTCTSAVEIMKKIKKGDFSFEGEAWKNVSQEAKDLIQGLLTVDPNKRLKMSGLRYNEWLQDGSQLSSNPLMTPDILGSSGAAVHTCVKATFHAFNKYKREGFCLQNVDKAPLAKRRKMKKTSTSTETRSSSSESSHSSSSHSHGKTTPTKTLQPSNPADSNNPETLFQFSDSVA
Chain of Epidermal growth factor receptor (Homo sapiens), P00533 [L861Q] (P00533 whole entry L861Q): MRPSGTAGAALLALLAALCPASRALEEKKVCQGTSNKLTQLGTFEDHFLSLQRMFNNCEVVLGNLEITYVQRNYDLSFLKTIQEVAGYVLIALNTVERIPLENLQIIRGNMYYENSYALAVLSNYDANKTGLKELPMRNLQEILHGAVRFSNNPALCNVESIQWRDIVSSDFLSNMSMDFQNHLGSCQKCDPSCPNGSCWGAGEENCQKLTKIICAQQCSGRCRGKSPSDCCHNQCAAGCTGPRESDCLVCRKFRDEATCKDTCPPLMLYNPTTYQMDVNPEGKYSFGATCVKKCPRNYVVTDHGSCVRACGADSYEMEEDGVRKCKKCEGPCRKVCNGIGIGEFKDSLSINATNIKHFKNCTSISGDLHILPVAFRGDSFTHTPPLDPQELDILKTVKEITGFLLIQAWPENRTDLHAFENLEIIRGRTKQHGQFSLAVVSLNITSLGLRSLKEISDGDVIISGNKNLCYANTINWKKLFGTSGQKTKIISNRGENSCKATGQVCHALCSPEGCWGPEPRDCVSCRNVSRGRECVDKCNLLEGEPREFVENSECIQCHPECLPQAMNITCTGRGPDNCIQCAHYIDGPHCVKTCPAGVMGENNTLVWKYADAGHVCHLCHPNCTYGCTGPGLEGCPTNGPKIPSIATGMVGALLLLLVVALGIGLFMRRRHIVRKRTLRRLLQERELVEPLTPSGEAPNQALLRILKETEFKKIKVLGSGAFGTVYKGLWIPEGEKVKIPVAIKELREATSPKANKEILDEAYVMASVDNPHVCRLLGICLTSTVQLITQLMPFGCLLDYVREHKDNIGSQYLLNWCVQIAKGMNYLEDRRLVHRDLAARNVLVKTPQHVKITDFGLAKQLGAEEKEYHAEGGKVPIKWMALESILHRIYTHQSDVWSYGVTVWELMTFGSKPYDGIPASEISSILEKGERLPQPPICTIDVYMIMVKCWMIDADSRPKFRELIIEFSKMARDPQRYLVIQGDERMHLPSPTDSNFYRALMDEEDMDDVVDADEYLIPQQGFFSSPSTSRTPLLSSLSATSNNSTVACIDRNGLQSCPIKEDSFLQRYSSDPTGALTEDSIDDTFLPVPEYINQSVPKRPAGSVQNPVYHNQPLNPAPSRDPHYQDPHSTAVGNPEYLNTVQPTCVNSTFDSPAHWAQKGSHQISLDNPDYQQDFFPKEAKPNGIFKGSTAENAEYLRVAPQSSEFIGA
Chain of Glycogen synthase kinase-3 beta (P49841 whole entry): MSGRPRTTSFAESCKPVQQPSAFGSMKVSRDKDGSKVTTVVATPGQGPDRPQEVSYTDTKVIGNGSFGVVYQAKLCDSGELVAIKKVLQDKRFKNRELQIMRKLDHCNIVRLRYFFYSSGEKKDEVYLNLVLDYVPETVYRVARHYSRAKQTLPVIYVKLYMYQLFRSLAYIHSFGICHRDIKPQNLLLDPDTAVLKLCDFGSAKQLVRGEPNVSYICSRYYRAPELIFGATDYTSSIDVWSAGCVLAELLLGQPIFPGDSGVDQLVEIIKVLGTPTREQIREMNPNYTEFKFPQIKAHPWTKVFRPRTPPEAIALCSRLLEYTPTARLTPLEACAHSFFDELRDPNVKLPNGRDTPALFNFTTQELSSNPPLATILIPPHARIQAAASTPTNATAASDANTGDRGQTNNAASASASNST

`Cn1cc(-n2cnc3c(NCc4nc5cc(Cl)c(Cl)cc5[nH]4)nc(N4CCOCC4)nc32)cn1`: the % of inhibition in assay [1] was -166%.

Consider `N#Cc1cccc(-c2c[nH]c3ncnc(N4CCOCC4)c23)c1`, for which the % of control stood at 100% in [2]; 100% in assay [3]; 84% in assay [4]; 77% in assay [5]; 78% in assay [6]; 100% in [7]. The % of control in [8] is 81%; in assay [9], 86%.

In assay [10], `CC(=O)c1cc(-c2ccccc2OCC2CC2)c2ncccn12` yielded a % of control of 83%.

In the case of `Cc1cc(F)c(C(=O)Nc2cccc(-c3nncn3C(C)C)n2)cc1-n1cnc(C2CC2)c1`, the % of control in [11] was 100%; in assay [12], 97%; in [13], 100%; in assay [14] it was 97%.

With `O=C(NOC[C@H](O)CO)c1ccc(F)c(F)c1Nc1ccc(I)cc1F`, the % of control is 100% in assay [15] and 87% in assay [16].

Consider `CC[C@@H]1[C@H](F)C(=O)N[C@@H]1COc1nccc2cc(C(N)=O)c(OC)cc12` [ZIMLOVISERTIB], for which the % of inhibition in assay [17] (at 0.01 µM) is -0.5%; in assay [17] (at 0.04 µM) it was 12.2%; in [17] (at 0.2 µM), 34.8%; in assay [17] (at 1 µM), 58.5%; in assay [17] (at 5 µM), 85.1%.

Take `CN1Cc2nccc(-c3cn(C)nc3-c3ccc(F)cc3)c2C1=O`: the % of inhibition in assay [18] was determined as 1%.

Consider `Cn1cc(Nc2nccc(N3CC4CCC(C3)N4C(=O)[C@@H]3CC3(F)F)n2)cn1`, for which the % of inhibition in assay [19] was determined as 96%.

Consider `Cc1cc(-c2ccnc(Nc3cnn(C)c3)n2)ccc1CNC(=O)N1CC(OC(C)C)C1`, for which, in [20], the % of control was determined as 46%.

In the case of `CCC(=O)N1CC[C@H](Nc2ncnc3c2CN(c2cnc(OC)c(C(F)(F)F)c2)CC3)C1` [LENIOLISIB], the IC50 – broadly, the concentration that inhibits the measured activity by half – in [21] was greater than 10 µM.

For the compound `CN(C)CCOc1ccc(-c2nc(-c3ccncc3)c(-c3ccc4c(c3)CC/C4=N\O)[nH]2)cc1`, the figures for the % of control in assay [22] and in [23] were 16% and 94%, respectively.

For the compound `Cc1cc(C)cc([C@@H]2c3cc(C)ccc3NC(=O)CN2C(=O)c2ccc(Br)s2)c1`, in assay [24], the % of inhibition was 12%.
